The results in this text go back to PubChem BioAssay AID1033 (Sanford-Burnham Center for Chemical Genomics, 2008).

The structures appear in SMILES notation. Active and inactive are the calls of the source. The rule behind the calls is not given here. Bounds are passed on as bounds.

Chain of Chaperone protein DnaK (Escherichia coli (strain K12)) (P0A6Y8 whole entry, looked up, the tested form may be a part): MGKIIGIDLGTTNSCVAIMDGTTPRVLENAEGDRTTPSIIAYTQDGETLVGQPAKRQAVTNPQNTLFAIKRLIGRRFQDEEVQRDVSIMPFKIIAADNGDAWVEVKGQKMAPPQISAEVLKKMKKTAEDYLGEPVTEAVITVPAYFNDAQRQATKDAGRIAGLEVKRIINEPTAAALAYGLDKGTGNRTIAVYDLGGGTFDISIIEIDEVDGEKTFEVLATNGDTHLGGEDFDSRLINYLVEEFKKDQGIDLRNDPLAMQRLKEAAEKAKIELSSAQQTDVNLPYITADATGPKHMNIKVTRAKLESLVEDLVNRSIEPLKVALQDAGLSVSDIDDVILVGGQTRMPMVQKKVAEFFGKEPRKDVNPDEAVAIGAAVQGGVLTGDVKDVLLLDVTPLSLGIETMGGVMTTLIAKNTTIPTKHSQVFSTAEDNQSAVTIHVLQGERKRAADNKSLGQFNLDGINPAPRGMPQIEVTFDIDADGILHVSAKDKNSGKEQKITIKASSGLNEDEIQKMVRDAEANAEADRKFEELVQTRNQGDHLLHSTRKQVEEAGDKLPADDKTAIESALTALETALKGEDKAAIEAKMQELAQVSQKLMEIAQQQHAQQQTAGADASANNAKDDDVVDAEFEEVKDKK

This assay concerns the target Chaperone protein DnaK (Escherichia coli (strain K12)) (UniProt P0A6Y8). Kind of assay: binders of DnaK substrate-binding domain, biophysical, NMR, chaperone (AID 1033). The following applies: Purified DnaK SBD, NMR ligand binding.
What is called Kd is a measure of binding affinity in units of concentration. In the case of `Nc1ccccc1C(=O)N1CCNC(=O)C1`, the Kd was > 4 mM (inactive).

Consider `COc1ccc(Cl)c(S(=O)(=O)N2CCCC2)c1`, for which the Kd is > 4 mM (inactive).

As to `O=C(Nc1cccc(Cl)c1)c1ccncc1`, the Kd is > 4 mM (inactive).

`Cc1nn(-c2ccccc2)nc1C(=O)O`: the Kd is > 4 mM (inactive).

Consider `Cc1nc2ccc(C(=O)O)cc2nc1C`, for which the Kd was > 4 mM (inactive).

As for `O=c1c2ccccc2[nH]c2ncccc12`, the Kd is > 4 mM (inactive).

In the case of `CNC(C)[C@H](O)c1ccccc1` (stereo partly specified), the Kd was > 4 mM (inactive).

On to `Cn1nc(C(C)(C)C)cc1N`, for which the Kd is > 4 mM (inactive).

As for `CC(=O)OCc1cc(=O)n(C)c(=O)n1C`, the Kd was > 4 mM (inactive).

With `COC(=O)c1ccc(Cl)c(NC(C)=O)c1`, the Kd is > 4 mM (inactive).

In the case of `COc1ccccc1N1C(=N)SCC1=O`, the Kd is > 4 mM (inactive).

With `COc1c2ccoc2cc2oc(C)cc(=O)c12`, the Kd is > 4 mM (inactive).

For the compound `O=C(O)CCC(=O)Nc1nnc(C(F)(F)F)s1`, the Kd was > 4 mM (inactive).

Take `O=C(O)C1CC(=O)N(CCc2ccc(Cl)cc2)C1` (stereo unspecified): the Kd was > 4 mM (inactive).

On to `O=C(O)CCNc1n[nH]c(=O)[nH]c1=O`, for which the Kd was > 4 mM (inactive).

On to `Cn1c(SCC(=O)NCCO)nc2ccccc2c1=O`, for which the Kd was > 4 mM (inactive).

On to `CC(=O)N1N=C(N)SC1c1cccnc1` (stereo unspecified), for which the Kd is > 4 mM (inactive).

Turning to `Cc1ccc(NC(=O)C(=O)Nc2ccccn2)cc1`, the Kd was > 4 mM (inactive).

`Cc1n[nH]c(=O)nc1N1CCN(c2ccccc2)CC1`: the Kd is > 4 mM (inactive).

In the case of `Nc1ncnc(NC2CCS(=O)(=O)C2)c1[N+](=O)[O-]` (stereo unspecified), the Kd is > 4 mM (inactive).

As to `COC1=CC(=O)C[C@@H](C)[C@]12Oc1c(Cl)c(OC)cc(OC)c1C2=O`, the Kd was > 4 mM (inactive).

As for `OC12C=CC(CC1)CC2`, the Kd was > 4 mM (inactive).

For `O=S1(=O)CCC(NC(=S)N2CCCCC2)C1` (stereo unspecified), the Kd was > 4 mM (inactive).

As to `C(=N\c1ncn[nH]1)/c1cccs1`, the Kd is > 4 mM (inactive).

For `CC(=O)NCc1nc2ccccc2[nH]1`, the Kd was > 4 mM (inactive).

Regarding `Cn1[nH]c(C(F)(F)F)cc1=O`, the Kd was > 4 mM (inactive).

Take `Cc1nc2c(n1O)CCc1c-2no[n+]1[O-]`: the Kd was > 4 mM (inactive).

Turning to `CN1CCC2(CC1)CC1CC3C=CC1(CN2)O3` (stereo unspecified), the Kd is > 4 mM (inactive).

Turning to `CSc1cc(C)[nH]c(=O)n1`, the Kd was > 4 mM (inactive).

Consider `OCc1ccc2occc2c1`, for which the Kd is > 4 mM (inactive).

Regarding `O=c1[nH]cc(NC(=S)N2CCOCC2)c(=O)[nH]1`, the Kd was > 4 mM (inactive).

Turning to `O=C(Nc1ncccn1)c1cccc(F)c1`, the Kd was > 4 mM (inactive).

For `NC[C@H]1O[C@H](O[C@H]2[C@H](O)[C@@H](O[C@H]3O[C@H](CO)[C@@H](O)[C@H](N)[C@H]3O)[C@H](N)C[C@@H]2N)[C@H](N)[C@@H](O)[C@@H]1O`, the Kd is > 4 mM (inactive).

For the compound `COc1ccc(C(N)=O)cc1N`, the Kd was > 4 mM (inactive).

On to `C(=Nn1cnnc1)c1ccccc1`, for which the Kd was > 4 mM (inactive).

As to `COc1ccc2ccc(=O)oc2c1`, the Kd is > 4 mM (inactive).

Regarding `COCC(=O)Nc1cccc(Br)c1`, the Kd was > 4 mM (inactive).

With `O=C(O)CCn1cncn1`, the Kd was > 4 mM (inactive).

As to `O=C1NCCCC1C(=O)N1CCCCC1` (stereo unspecified), the Kd is > 4 mM (inactive).

`Nc1ncnc2nc(SCCN3CCCCC3)[nH]c12`: the Kd is > 4 mM (inactive).

For `COc1ccc(-c2c(O)c3c(OC)c4c(cc3oc2=O)OC(C)(C)CC4)cc1`, the Kd is > 4 mM (inactive).

`Cc1c(CO)cnn1-c1ccccc1`: the Kd was > 4 mM (inactive).

In the case of `Nc1nnc(SCc2ccc(F)cc2Cl)s1`, the Kd is > 4 mM (inactive).

`O=C(Nc1ccc2c(c1)OCO2)c1cnn2cccnc12`: the Kd is > 4 mM (inactive).

`O=C1CSC(=O)N1CN1CCOCC1`: the Kd was > 4 mM (inactive).

With `NS(=O)(=O)c1ccc2c3c(cccc13)C(=O)N2`, the Kd was > 4 mM (inactive).

For `CC(=O)Nc1ccc(S(=O)(=O)N2CCN=C2C)cc1`, the Kd is > 4 mM (inactive).

Consider `O=C(O)CSCc1ccc(Cl)cc1`, for which the Kd was > 4 mM (inactive).

Turning to `NC(=O)CC(=O)NC12CC3CC(CC(C3)C1)C2`, the Kd was > 4 mM (inactive).

Take `COc1cc2ccc(=O)oc2c(OC)c1OC`: the Kd is > 4 mM (inactive).

Take `Cc1csc(SCC(=O)N2CCCC2)n1`: the Kd is > 4 mM (inactive).

For the compound `O=C(O)c1ccc2c(c1)OCO2`, the Kd is > 4 mM (inactive).

`NC(=S)NC(=O)CN1C(=O)c2ccccc2C1=O`: the Kd is > 4 mM (inactive).

Consider `O=C(Nc1nncs1)C1(c2ccccc2)CCCC1`, for which the Kd was > 4 mM (inactive).

For `CCOC(=O)c1c(SC)nc(=O)[nH]c1C`, the Kd is > 4 mM (inactive).

Take `Clc1ccccc1-c1nc(-c2cccnc2)no1`: the Kd is > 4 mM (inactive).

As for `OCC1CN(Cc2ccccc2)CCO1` (stereo unspecified), the Kd was > 4 mM (inactive).

`CCCS(=O)(=O)N1CCN(c2ccccn2)CC1`: the Kd is > 4 mM (inactive).

Regarding `Cc1cc(-c2ccc(Cl)cc2)n2nc(N)nc2n1`, the Kd is > 4 mM (inactive).

For `O=C(c1ccc(N2CCNCC2)cc1)c1cccnc1`, the Kd was > 4 mM (inactive).

As to `CS(=O)(=O)Nc1cc2c3c(c1)CCN3C(=O)CC2`, the Kd is > 4 mM (inactive).

Regarding `Cc1cc(=O)oc2c1c(C)nn2CN1CCN(C)CC1`, the Kd was > 4 mM (inactive).

Take `COC(=O)c1ccc(/C=C2/NC(=S)NC2=O)cc1`: the Kd is > 4 mM (inactive).

For the compound `COc1ccccc1NC(C)=O`, the Kd is > 4 mM (inactive).

Take `CCOC(=O)c1c[nH]c2c(F)cccc2c1=O`: the Kd was > 4 mM (inactive).

With `CC(C)[C@@H]1CC[C@@H](C)C[C@H]1OC(=O)c1ccccc1`, the Kd was > 4 mM (inactive).

As for `OCC1CCCC1O` (stereo unspecified), the Kd was > 4 mM (inactive).

Take `CN1CCn2c1nc(N1CCCCC1)nc2=O`: the Kd was > 4 mM (inactive).

Turning to `NC(=O)Cn1cnc2c(cnn2-c2ccccc2)c1=O`, the Kd was > 4 mM (inactive).

As to `CC(=O)Nc1cc(C(F)(F)F)ccc1N1CCOCC1`, the Kd is > 4 mM (inactive).

For `Fc1ccc(N2CCNCC2)cc1`, the Kd is > 4 mM (inactive).

Consider `CN(C)c1nc(N2CCOCC2)c2cnn(C)c2n1`, for which the Kd is > 4 mM (inactive).

With `Cc1sc2nc(-c3ccco3)oc(=O)c2c1C`, the Kd is > 4 mM (inactive).

As to `CC(C)=CC1C(CO)C1(C)C` (stereo unspecified), the Kd is > 4 mM (inactive).

With `CCC(=O)Nc1cccc(NC(C)=O)c1`, the Kd is > 4 mM (inactive).

For the compound `c1ccc(CN2CCC3(CC2)Nc2ccccc2CO3)cc1`, the Kd was > 4 mM (inactive).

`O=C1NC(=O)C(C(=S)Nc2ccccc2)C(=O)N1`: the Kd is > 4 mM (inactive).

On to `Oc1ccccc1N=Cc1cccnc1`, for which the Kd is > 4 mM (inactive).

On to `CC(=O)Oc1ccc(O)cc1`, for which the Kd was > 4 mM (inactive).

In the case of `CN1CCN(C2CCSC2)CC1` (stereo unspecified), the Kd was > 4 mM (inactive).

With `O=C1c2ccccc2C(=O)N1Cc1ccco1`, the Kd was > 4 mM (inactive).

On to `COc1cc(O)c(C(=O)c2ccccc2)cc1O`, for which the Kd was > 4 mM (inactive).

Turning to `COc1ccc(C(C)=O)c(O)c1`, the Kd was > 4 mM (inactive).

With `Cn1c(SCC(N)=O)nnc1-c1c[nH]c2ccccc12`, the Kd was > 4 mM (inactive).

Turning to `NC(=O)c1ccccc1N1CCCCC1`, the Kd is > 4 mM (inactive).

On to `CN1C(=O)/C(=C\c2ccc[nH]2)SC1=S`, for which the Kd is > 4 mM (inactive).

In the case of `Cc1cccc(N2CCN(C(=O)c3ccncc3)CC2)c1C`, the Kd was > 4 mM (inactive).

With `CC1/C(=N/O)C[C@@H]2C[C@H]1C2(C)C` (stereo partly specified), the Kd is > 4 mM (inactive).

As for `Nc1nnc(SCc2cccnc2)s1`, the Kd was > 4 mM (inactive).

For `Cn1nc(C(=O)NC2CCCCC2)c2ccccc2c1=O`, the Kd is > 4 mM (inactive).

For `Cc1ccc(C)c(C(=O)n2cnnc2N)c1`, the Kd is > 4 mM (inactive).

Turning to `CC1(C)C[C@@H]2C(=O)CC[C@H]3O[C@]3(C)CC[C@H]21`, the Kd was > 4 mM (inactive).

As to `CS(C)=C1C(=O)NC(=O)N(Cc2ccc(F)cc2)C1=O`, the Kd is > 4 mM (inactive).

Take `Cc1nn(CC(=O)Nc2ccccn2)c(=O)c2ccccc12`: the Kd was > 4 mM (inactive).

In the case of `CC1=C(C(N)=O)C(c2ccccc2)NC(=O)N1` (stereo unspecified), the Kd is > 4 mM (inactive).

Consider `COC(=O)C[C@H]1C2(C)CC34OC5(C)O[C@@]6([C@H](OC)C(OC(=O)C(C)C)[C@]7(C)C(/C(=C(/OC)C(C)C)C(=O)O[C@H]7c7ccoc7)[C@@]6(O5)[C@H](OC)[C@@]3(OC)C2OC(C)=O)[C@]14C` (stereo partly specified), for which the Kd was > 4 mM (inactive).

Regarding `COc1ccc(-c2ccc(OC)cc2C(=O)O)cc1`, the Kd is > 4 mM (inactive).

Consider `CC1CC[C@]2(NC1)O[C@H]1CC3C4CC[C@H]5C[C@@H](O)CC[C@]5(C)C4CC[C@]3(C)[C@H]1[C@@H]2C` (stereo partly specified), for which the Kd was > 4 mM (inactive).

As to `CN1C(=O)Cc2cc(S(N)(=O)=O)ccc21`, the Kd was > 4 mM (inactive).

For the compound `O=C(O)c1ccc(N2CCCCC2)cc1`, the Kd is > 4 mM (inactive).

As for `CSc1nc2[nH]ncc2c(=O)[nH]1`, the Kd is > 4 mM (inactive).

For `Cc1nn(-c2ccccc2)nc1CO`, the Kd was > 4 mM (inactive).

For `Cc1ccc2c(c1)CCCN2C(=O)c1ccncc1`, the Kd was > 4 mM (inactive).

Take `Cc1ccc(N2C(=O)CCC2=O)cc1`: the Kd is > 4 mM (inactive).

`O=C(CSc1cccc2cccnc12)N1CCCC1`: the Kd was > 4 mM (inactive).

Turning to `Cc1nnc2n(c1=O)N=C(c1ccccc1)CS2`, the Kd is > 4 mM (inactive).
